Measured values reported in patent publication US20130274338A1, “PHARMACEUTICAL COMPOSITIONS COMPRISING DGLA, 15-OHEPA, AND/OR 15-HETRE AND METHODS OF REDUCING SEBUM PRODUCTION USING SAME” (priority 2012, published 2013).
In brackets after ≈: the same amount, converted by molar mass. One block for each compound: values may come before it.

Experiments:
[1] = system: immortalized sebocyte cell line; test: Sebocyte proliferation: viability (M.T.T. test) and morphology after 72 hours; format: cell-based, human
From the text: In an embodiment, the pharmacodynamics of a composition comprising DGLA, 15-OHEPA, or 15-HETrE as disclosed herein may be examined using a model of sebum production. In an embodiment, the effects of a composition comprising DGLA, 15-OHEPA, or 15-HETrE as disclosed herein on the proliferation and/or differentiation of sebocytes serves as a model for the pharmacodynamics on sebum production (see, e.g., U.S. Patent Application Publication No. US 2010/0278948, the contents of which are incorporated by reference). In an exemplary method, primary sebocytes are isolated from skin tissue (e.g., human scalp tissue). The isolated primary sebocytes are then immortalized, and the resulting cell line is divided into discrete cultures. Discrete cultures can then be treated with various concentrations of a composition comprising DGLA, 15-OHEPA, or 15-HETrE as disclosed herein. For comparison, a negative control (e.g., a culture of an immortalized sebocyte cell line left untreated) and/or a positive control (e.g., treatment of an immortalized sebocyte cell line with a compound known to inhibit sebocyte growth such as isotretinoin) can be maintained alongside of the test cultures. In an embodiment, a pharmacodynamic assay is maintained for an amount of time suitable to observe differences (if any) between the various immortalized sebocyte cell cultures, for example less than about 24 hours, about 24 hours, about 48 hours, about 72 hours, about 96 hours, about 120 hours, about 144 hours, more than about 144 hours, etc. The effect of treating an immortalized sebocyte cell culture with a given composition or compound can be determined by quantifying, for example and without limitation, the viability of the cultures (e.g., the percent viability and/or mean percent viability). The effect of treating an immortalized sebocyte cell culture with a given composition or compound can be determined by qualitatively assessing, for example and without limitation, morphological changes in the culture. In an embodiment, changes in the morphology of the culture may be classified as: no change (e.g., “normal” population), reduced growth (e.g., “growth reduction”), toxic changes (e.g., “toxicity”), and/or cell death (e.g., “cell mortality”).
The compounds tested in Example 1 were tested to determine the capacity of each to reduce sebum production. In an exemplary method, each compound's ability to inhibit the growth of an immortalized sebocyte cell line was determined.
Primary sebocytes were isolated from sebaceous glands obtained from dissections of human scalp tissue. The primary sebocytes were immortalized and the resulting cell culture was used to study the effects of DGLA and 15-HETrE on sebocyte cell proliferation. Individual cell cultures were treated with eight concentrations of DGLA (1.00 μM, 4.00 μM, […], 37.00 μM, 111.00 μM, 333.00 μM, 1000.00 μM, and 3000.00 μM), and eight concentrations of 15-HETrE (0.50 1.00 4.00 10.00 40.00 110.00 330.00 1000.00). As a positive control, individual cell cultures were treated with eight concentrations of Isotretinoin. Negative control cultures were also maintained. After 72 hours, the mean percent viability for each of the cultures was determined by colorimetry (M.T.T. test) according to J. Mosmann, J. Immunol. Meth., vol. 65, pp. 55-63 (1983), and morphological differences were also observed at that time (see Table 9).

[2] = system: immortalized sebocyte cell line; test: as above; format: cell-based; conditions: Homo sapiens
P. acnes = test: Agar dilution method, growth of P. acnes and MIC, single compounds; format: cell-based, Propionibacterium acnes; parameters: key to Growth Index Plate 1 / Growth Index Plate 2 / Growth Index Plate 3 / Growth Index Avg: +++: confluent growth (comparable to control); ++: less confluent growth; +: marked reduction in growth to multiple tiny, single colonies; −: no growth present; conditions: for MIC: Cutibacterium acnes, compound alone, MIC = concentration with marked reduction (+) of growth, read-out: MIC (mg/mL) as per P-11-0007 or P-11-0008 Addendum A
Procedure: Several compounds including fatty acids such as DGLA, 15-OHEPA, and 15-HETrE were tested to determine their capacity to inhibit the growth of P. acnes. In an exemplary method, an agar dilution method was used to determine the minimum inhibitory concentration (MIC) of each tested compound. Briefly, the agar dilution method involved preparing a series of concentrations of each compound (e.g., nicotinamide, benzoyl peroxide, adapalene, metronidazole, DGLA, 15-OHEPA, and 15-HETrE) in a Reinforced Clostridial Agar (RCA) media that facilitates growth of P. acnes under anaerobic conditions. An inoculum of P. acnes was prepared by incubation of P. acnes for approximately seven days at 35-37° C. to achieve a ≧1.0 OD600 inoculum of P. acnes in RCM broth. A portion of this inoculum was then added to the surface of each plate as a 10 μL spot and incubated at 35-37° C. for 72 hours or more. Growth of P. acnes was then observed and compared to control plates in which no compound has been added, and positive inhibition plates prepared with erythromycin. […] The growth of P. acnes in the presence of nicotinamide, benzoyl peroxide, adapalene, metronidazole, DGLA, 15-OHEPA, and 15-HETrE was determined with varying concentrations of the compound (see, Table 2). Next, the MIC was determined as the concentration at which a marked reduction (+) occurs in the appearance of growth on the test plate (as per Clinical and Laboratory Standards Institute M11-A7).

Structure (SMILES): CC1=C(/C=C/C(C)=C/C=C/C(C)=C\C(=O)O)C(C)(C)CCC1 [Isotretinoin]
- Morphological Observations ([1]; 1.11 μM, 72 hours): toxicity
- viability at 0.005 µM ([1]; Homo sapiens, 0.005 μM, 72 hours): 105%
- viability at 0.014 µM ([1]; Homo sapiens, 0.014 μM, 72 hours): 110%
- viability at 0.041 µM ([1]; Homo sapiens, 0.041 μM, 72 hours): 103%
- viability at 0.123 µM ([1]; Homo sapiens, 0.123 μM, 72 hours): 96%
- viability at 0.37 µM ([1]; Homo sapiens, 0.370 μM, 72 hours): 88%
- viability at 1.11 µM ([1]; Homo sapiens, 1.11 μM, 72 hours): 76%
- viability at 3.33 µM ([1]; Homo sapiens, 3.33 μM, 72 hours): 8%
- viability at 10 µM ([1]; Homo sapiens, 10.00 μM (10 μM), 72 hours): 1%

- MIC (P. acnes): 400 to 600 µg/mL (≈ 1310 to 1960 µM)
Structure (SMILES): CCCCC/C=C\C/C=C\C/C=C\CCCCCCC(=O)O [DGLA, cis-8,11,14-eicosatrienoic acid]
- viability at 12 µM [2]: 63%
- effect on growth of P. acnes on its own (P. acnes; 0.4 mg/ml): no effect
- Growth Index Avg (P. acnes; compound at 0.2 mg/mL): +++
- Growth Index Plate 1 (P. acnes; compound at 0.2 mg/mL): +++
- Growth Index Plate 2 (P. acnes; compound at 0.2 mg/mL): +++
- Growth Index Plate 3 (P. acnes; compound at 0.2 mg/mL): +++
- Growth Index Avg (P. acnes; compound at 0.4 mg/mL): +++
- Growth Index Plate 1 (P. acnes; compound at 0.4 mg/mL): +++
- Growth Index Plate 2 (P. acnes; compound at 0.4 mg/mL): +++
- Growth Index Plate 3 (P. acnes; compound at 0.4 mg/mL): +++
- Growth Index Avg (P. acnes; compound at 0.6 mg/mL): +
- Growth Index Plate 1 (P. acnes; compound at 0.6 mg/mL): ++
- Growth Index Plate 2 (P. acnes; compound at 0.6 mg/mL): −
- Growth Index Plate 3 (P. acnes; compound at 0.6 mg/mL): ++
- Growth Index Avg (P. acnes; compound at 0.8 mg/mL): +
- Growth Index Plate 1 (P. acnes; compound at 0.8 mg/mL): ++
- Growth Index Plate 2 (P. acnes; compound at 0.8 mg/mL): +
- Growth Index Plate 3 (P. acnes; compound at 0.8 mg/mL): +
- Growth Index Avg (P. acnes; compound at 1.0 mg/mL): +
- Growth Index Plate 1 (P. acnes; compound at 1.0 mg/mL): +
- Growth Index Plate 2 (P. acnes; compound at 1.0 mg/mL): +
- Growth Index Plate 3 (P. acnes; compound at 1.0 mg/mL): +
- viability at 1 µM ([1]; Homo sapiens, 1.00 μM, 72 hours): 107%
- viability at 4 µM ([1]; Homo sapiens, 4.00 μM, 72 hours): 97%
- viability at 37 µM ([1]; Homo sapiens, 37.00 μM, 72 hours): 1%
- viability at 111 µM ([1]; Homo sapiens, 111.00 μM, 72 hours): 2%
- viability at 333 µM ([1]; Homo sapiens, 333.00 μM, 72 hours): 1%
- viability at 1000 µM ([1]; Homo sapiens, 1000.00 μM, 72 hours): 1%
- viability at 3000 µM ([1]; Homo sapiens, 3000.00 μM, 72 hours): 3%

Structure (SMILES): CCCCCC(O)/C=C/C=C\C/C=C\CCCCCCC(=O)O (stereo not drawn) [15-HETrE, 15-hydroxy-eicosa-8(Z),11(Z),13(E)-trienoic acid]
- effect on growth of P. acnes on its own (P. acnes; 0.01 mg/ml): no effect
- Growth Index Avg (P. acnes; compound at 0.00001 mg/mL): +++
- Growth Index Plate 1 (P. acnes; compound at 0.00001 mg/mL): +++
- Growth Index Plate 2 (P. acnes; compound at 0.00001 mg/mL): +++
- Growth Index Plate 3 (P. acnes; compound at 0.00001 mg/mL): +++
- Growth Index Avg (P. acnes; compound at 0.0001 mg/mL): +++
- Growth Index Plate 1 (P. acnes; compound at 0.0001 mg/mL): +++
- Growth Index Plate 2 (P. acnes; compound at 0.0001 mg/mL): +++
- Growth Index Plate 3 (P. acnes; compound at 0.0001 mg/mL): +++
- Growth Index Avg (P. acnes; compound at 0.001 mg/mL): +++
- Growth Index Plate 1 (P. acnes; compound at 0.001 mg/mL): +++
- Growth Index Plate 2 (P. acnes; compound at 0.001 mg/mL): +++
- Growth Index Plate 3 (P. acnes; compound at 0.001 mg/mL): +++
- Growth Index Avg (P. acnes; compound at 0.01 mg/mL): ++
- Growth Index Plate 1 (P. acnes; compound at 0.01 mg/mL): ++
- Growth Index Plate 2 (P. acnes; compound at 0.01 mg/mL): +++
- Growth Index Plate 3 (P. acnes; compound at 0.01 mg/mL): ++
- Growth Index Avg (P. acnes; compound at 0.05 mg/mL): −
- Growth Index Plate 1 (P. acnes; compound at 0.05 mg/mL): −
- Growth Index Plate 2 (P. acnes; compound at 0.05 mg/mL): −
- Growth Index Plate 3 (P. acnes; compound at 0.05 mg/mL): −
- Mean % Viability ([1]; 0.5 µM): 85%
- Mean % Viability ([1]; 1 µM): 77%
- Mean % Viability ([1]; 4 µM): 52%
- Morphological Observations ([1]; 4.00 μM, 72 hours): toxicity
- Mean % Viability ([1]; 10 µM): 18%
- Morphological Observations ([1]; 10.00 μM (10 μM), 72 hours): toxicity
- Mean % Viability ([1]; 40 µM): 1%
- Mean % Viability ([1]; 110 µM): 1%
- Mean % Viability ([1]; 330 µM): 0%
- Mean % Viability ([1]; 1000 µM): 0%

- MIC (P. acnes): 50 to 75 µg/mL (≈ 157 to 236 µM)
Structure (SMILES): CCC=CCC(O)C=CC=CCC=CCC=CCCCC(=O)O (stereo not drawn) [15-OHEPA, 15-Hydroxy-eicosa-5,8,11,13,17-pentaenoic acid]
- effect on growth of P. acnes on its own (P. acnes; 0.05 mg/mL): no effect
- Growth Index Avg (P. acnes; compound at 0.010 mg/mL): +++
- Growth Index Plate 1 (P. acnes; compound at 0.010 mg/mL): +++
- Growth Index Plate 2 (P. acnes; compound at 0.010 mg/mL): +++
- Growth Index Plate 3 (P. acnes; compound at 0.010 mg/mL): +++
- Growth Index Avg (P. acnes; compound at 0.025 mg/mL): +++
- Growth Index Plate 1 (P. acnes; compound at 0.025 mg/mL): +++
- Growth Index Plate 2 (P. acnes; compound at 0.025 mg/mL): +++
- Growth Index Plate 3 (P. acnes; compound at 0.025 mg/mL): +++
- Growth Index Avg (P. acnes; compound at 0.050 mg/mL): +++
- Growth Index Plate 1 (P. acnes; compound at 0.050 mg/mL): +++
- Growth Index Plate 2 (P. acnes; compound at 0.050 mg/mL): +++
- Growth Index Plate 3 (P. acnes; compound at 0.050 mg/mL): +++
- Growth Index Avg (P. acnes; compound at 0.075 mg/mL): +
- Growth Index Plate 1 (P. acnes; compound at 0.075 mg/mL): +
- Growth Index Plate 2 (P. acnes; compound at 0.075 mg/mL): +
- Growth Index Plate 3 (P. acnes; compound at 0.075 mg/mL): +
- Growth Index Avg (P. acnes; compound at 0.1 mg/mL): −
- Growth Index Plate 1 (P. acnes; compound at 0.1 mg/mL): −
- Growth Index Plate 2 (P. acnes; compound at 0.1 mg/mL): −
- Growth Index Plate 3 (P. acnes; compound at 0.1 mg/mL): −

- MIC (P. acnes): 0.01 to 0.05 µg/mL (≈ 0.0136 to 0.0681 µM)
Structure (SMILES): CC[C@H]1OC(=O)[C@H](C)[C@@H](O[C@H]2C[C@@](C)(OC)[C@@H](O)[C@H](C)O2)[C@H](C)[C@@H](O[C@@H]2O[C@H](C)C[C@H](N(C)C)[C@H]2O)[C@](C)(O)C[C@@H](C)C(=O)[C@H](C)[C@@H](O)[C@]1(C)O [Erythromycin]
